{
  "source": "patent US9186338B2",
  "about": "“Solubility enhancer and use thereof” (priority 2005, dated 2015)",
  "excerpt": "In accordance with yet another aspect of the present invention, there is provided a method for determining the solubility of said drugs, wherein the method comprises incremental addition of said drugs taken from stock to said solubility enhancer, shaking the resultant in an ultrasonic bath to obtain clear solution and determining the solubility.\nThe solutions of Isotretinoin were made by incremental addition technique, i.e. by adding portions of the drug from pre-weighed stock (Isotretinoin) to known volume of the alkanamide solution and shaking in an ultrasonic bath till the solution was clear. Thereafter the second weight was recorded & solubility was determined.\n(§1) Thereafter the second weight was recorded & solubility was determined.\nas §1",
  "data": [
    {"smiles": "CC1=C(/C=C/C(C)=C/C=C/C(C)=C\\C(=O)O)C(C)(C)CCC1", "note": "[Isotretinoin]", "values": [
      {"measurement": "amount of drug solubilized in 1 ml of Hexanamide", "result": 206, "unit": "mg"},
      {"measurement": "amount of drug solubilized in 1 ml of Octanamide", "result": 139.2, "unit": "mg"},
      {"measurement": "solubility in Hexanamide", "result": 20.6, "unit": "% w/v"},
      {"measurement": "solubility in Octanamide", "result": 13.92, "unit": "% w/v"}
    ]}
  ]
}
